Assay [1] relates to Smad2 nuclear translocation. The experiment in a line: Smad2 nuclear translocation, indirect immunofluorescent staining, Mv1Lu cells. Particulars: 50 μg/ml 1 hr, then 50 pM TGF-β1 30 min. It counts as cell-based, mink.
Procedure: Cells were treated with increasing concentrations of cholesterol, as indicated (A, B, C), 50 μg protein/ml LDL (D), 5 μg protein/ml VLDL (D) or 50 μg/ml cholesterol (E) at 37° C. for 1 hr and then further incubated with 50 pM TGF-β1 for 30 min. […] Smad2 nuclear translocation was analyzed by indirect immunofluorescent staining using P-Smad2 antibody and rhodamine-labeled 2nd antibody (E). Rhodamine fluorescence represents P-Smad2 staining (a,b,c) whereas the nuclei were stained by DAPI staining (d,e,f).
For indirect immunofluorescent staining, cells grown on cover glass were fixed in cold 100% methanol and then incubated with antibody to P-Smad2 overnight. The antigen was visualized by incubation with Rhodamine-conjugated goat antibody to rabbit IgG followed by immunofluorescence microscopy.
To test this possibility, we determined the effect of cholesterol treatment on Smad2 phosphorylation and nuclear translocation, both of which are key signaling events, leading to TGF-β responsiveness. […] To determine the effect of cholesterol on Smad2 nuclear translocation, Mv1Lu cells were treated with 50 μg/ml cholesterol at 37° C. for 1 hr and then further incubated with and without 50 pM TGF-β1 at 37° C. for 30 min. These cells were subjected to immunofluorescent staining using anti-P-Smad2 antibody and nuclear DAPI (4′,6-diamidine-2-phenylindole dihydrochloride) staining.
The subject of another assay is TβR-II. The experiment in a line: TGF-β1-induced degradation of TβR-II, Western blot. In kind it is cell-based. How it is done: (E) Cells were treated with several concentrations of cholesterol (a,b) or LDL (c,d) as indicated in the presence and absence of 1% β-CD at 37° C. for 1 hr and further incubated with 50 pM TGF-β for 1 hr. The cell lysates were then subjected to 7.5% SDS-PAGE and Western blot analysis using antibodies to TβR-II and α-actin (a,c). The relative intensities of TβR-II and α-actin on the blot were quantified by densitometry (b,d). The ratio of the relative intensities of TβR-II and α-actin in cells treated without TGF-β1 was taken as the 100% level of TβR-II.
(F, G) Cells were treated with or without 1 μM lovastatin/fluvastatin or nystatin (25 μg/ml)/cholesterol (50 μg/ml) at 37° C. for 16 hr or 1 hr, respectively. The treated cells were directly analyzed by sucrose density gradient ultracentrifugation analysis (F) or further incubated with 50 pM TGF-β at 37° C. for several time periods as indicated (G). Western blot analysis of the sucrose density gradient fractions (F) and of TGF-β1-treated cell lysates (G) was performed using antibody to TβR-II. The relative levels of TβR-II and α-actin were quantified by densitometry. Fractions ⅘ and 7 represent lipid raft/caveolae and non-lipid raft fractions, respectively. […] The quantitative data from three independent analyses is shown (G, bottom). […]
Cells grown to near confluence on 12-well cluster dishes were treated with cholesterol or LDL in serum-free DMEM (vol.=0.5 ml/well) at 37° C. for 1 hr. […] Treated cells were lysed and cell lysates were analyzed by 7.5% SDS-PAGE and Western blot analysis using anti-Smad2, anti-P-Smad2, anti-caveolin-1, anti-TβR-I (alk5) or anti-TβR-II antibodies as described previously (30). […]
Lipid raft/caveolae-mediated endocytosis of receptor-bound TGF-β results in rapid degradation of TGF-β1 and suppression of TGF-β responsiveness. […] To test this, we analyzed the lipid raft/caveolae and non-lipid raft localization of TβR-I and TβR-II in the plasma membrane of cells treated with or without cholesterol (50 μg/ml) using sucrose density gradient ultracentrifugation analysis. […]
In general terms: In western blotting, separated proteins are transferred to a membrane and probed.

The test system of a further assay is TβR-I and TβR-II. Kind of assay: 125I-TGF-β1 affinity labeling, CHO-K1 cells. The settings on record: 1 μM, 37° C. 16 hr, 0.12 untreated. It counts as cell-based, Chinese hamster. Here is the method: (A, B, C, D, E, F) Cells were treated with LDL (50 μg protein/ml), VLDL (5 μg protein/ml), HDL (50 μg protein/ml), lipoprotein (a) (10 μg/ml), fluvastatin (F; 1 μM), lovastatin (L; 1 μM), nystatin (Nys; 25 μg/ml), β-CD (β-CD; 8 mM), cholest-4-en-3-one (3-one; 50 μg/ml) or cholesterol (Chol; 50 μg/ml) alone or combination of two. After 1 hr at 37° C. or 16 hr at 37° C. (for fluvastatin and lovastatin), ^125I-TGF-β1 affinity labeling of cell-surface TGF-β receptors was performed at 0° C. ^125I-TGF-β1 affinity-labeled TβR-I and TβR-II were analyzed by 7.5% SDS-PAGE and autoradiography. The relative intensities of TβR-I and TβR-II were quantified with a PhosphoImager. The ratio of ^125I-TGF-β1 binding to TβR-II and TβR-I were estimated. The numbers above the lane sequence denote the ratio of TβR-II/TβR-I.
After cross-linking, cell lysates were analyzed by 7.5% SDS-PAGE and autoradiography or quantified by a PhosphoImager. For all experiments, cholesterol or cholesterol derivatives were prepared as the stock solution with a concentration of 25 mg/ml in ethanol. The final concentration of ethanol in the medium was 0.2% (by vol.). […]

2 compounds from patent US8946201B2, “Methods for inhibiting TGF-β” (Saint Louis University, priority 2007, dated 2015) can be followed below.

SMILES strings stand for the structures.

With `CC(C)CCC[C@@H](C)[C@H]1CC[C@H]2[C@@H]3CC=C4C[C@@H](O)CC[C@]4(C)[C@H]3CC[C@]12C` [cholesterol], the “effect on Smad2 nuclear translocation” value in assay [1] is “suppressed”. Further, in the assay on TβR-II (cholesterol 10 μg/ml or LDL 15 μg protein/ml, without TGF-β1), the “TβR-II degradation, treatment alone” value is recorded as “did not induce”. Besides, in the assay with TβR-II (cholesterol 10 μg/ml, LDL 15 μg protein/ml, 1 hr, then 50 pM TGF-β 1 hr), the “enhancement of TGF-β1-induced degradation of TβR-II” value is 70%.
With `CC[C@H](C)C(=O)O[C@H]1C[C@@H](C)C=C2C=C[C@H](C)[C@H](CC[C@@H]3C[C@@H](O)CC(=O)O3)[C@H]21` [lovastatin, reference compound], the “ratio of TβR-II/TβR-I” value with TβR-I and TβR-II was 0.18.
